The record followed here is patent US20230172996A1, “COMPOSITION FOR ALLEVIATING PULMONARY HYPERTENSION, METHOD FOR PREDICTING PROGNOSIS OF PULMONARY HYPERTENSION, METHOD FOR ASSISTING IN DETERMINING SEVERITY OF PULMONARY HYPERTENSION, AND METHOD FOR ASSISTING IN DIAGNOSING PULMONARY HYPERTENSION” (JSR Corporation, priority 2020, published 2023).

The experiment deals with rat model of pulmonary hypertension induced by exposure to hypoxia. In words: Butyrate-containing water in rat model of pulmonary hypertension induced by exposure to hypoxia. It counts as in vivo, SD rats. The settings on record: 100 mM butyrate in water ad libitum for three weeks, oral, compared to vehicle administration group. How it is done:
Rats were anesthetized by inhalation of isoflurane (Pfizer) for induction of sedation and analgesia. Throughout the procedure, the body temperature of the rats was maintained at 37 to 38° C. using a rectal thermistor coupled with a thermostatically controlled heating pad. The trachea was cannulated, and the lungs were ventilated with a mouse ventilator (Harvard Apparatus) at a tidal volume of 10 μL/g at a frequency of 70/min. A polyethylene tube was inserted into the right external jugular vein and advanced into the right ventricle to measure right ventricular pressure (RVP). RVP signals were detected by a pressure transducer (MLT0670; ADInstruments), and the signals were relayed to pressure amplifiers (ML117; ADInstruments), and then were sampled continuously with a PowerLab system (ADInstruments, Colorado Springs, Colo.) and recorded on a computer using Chart software (ADInstruments). Heart rate was derived from the right ventricular systolic peaks.
After right ventricular systolic pressure measurement, the rats were killed by anesthesia overdose, and the heart was excised. […] The tissues were blotted, and the weight of the right ventricle (RV) and the weight of the left ventricle (LV)+septum were measured. The ratio of RV to LV+septum weight (the ratio of RV to LV weight) was calculated and used as an index of right ventricular hypertrophy. […]

`CCCC(=O)[O-].[Na+]` [butyrate, sodium butyrate]: the “right ventricular systolic pressure” value (FIG. 33(A)) is “significant inhibition”. The “right ventricular hypertrophy (ratio of RV to LV weight)” value (FIG. 33(B)) is “significant inhibition”.
